From PMC3923716 (PLoS Neglected Tropical Diseases, 2014)
Several values for one entry are separate records, joined by “and”; a condition that tells them apart may be missing. Equal values may be shown once. Marks after values point to notes of the source that are not given here.

Legend:
L3 stage of B. pahangi = assay: L3 viability in vitro; assay type: cell-based, Brugia pahangi; conditions: 6 days exposure
Procedure: L3 stages were harvested from mosquitoes nine days post-infection. L3 were picked individually with a fine glass pipette, counted and washed three times in HBSS containing 1000 units/ml of penicillin and 1000 µg/ml streptomycin by sedimentation at room temperature. 20–30 L3 per well were plated out in duplicate in 24-well plates in 2.0 ml of WCM containing drug, or carrier alone (DMSO) and cultured at 37°C for up to 7 days. […] This experiment was repeated twice.

adult female B. pahangi [1] = assay: Short 24 h exposure of adult female worms, then medium alone; assay type: cell-based, Brugia pahangi; conditions: for mean Mf production: 24 h in drug and 24 h in medium alone; for lowest concentration with significantly fewer Mf: 250, 25, 10 nM tested
Brugia Hsp90 = assay: Competition FP assay, Brugia Hsp90 (species not separated); assay type: binding; conditions: read-out: IC50 for binding to Brugia Hsp90
Procedure: (§1) The FP assay was set up essentially as described previously, [25]. […] The equilibrium binding of Cy3B-GA and recombinant human Hsp90α (Enzo Life Sciences, Farmingdale, NY USA) or parasite lysate was determined by creating a two-fold dilution series of protein/extract for an eleven-point curve with the first column containing no protein. […] All FP values are expressed in millipolarization (mP) units with the mP value of free Cy3B-GA probe set to 50. Equilibrium binding constants were determined by nonlinear regression using a one-site binding model (GraphPad Prism software).
(§2) The relative binding affinities of inhibitors to human or parasite-derived Hsp90 was determined using competitive FP binding assays. […] For parasite-derived Hsp90, an amount of parasite lysate resulting in 50% of maximal Cy3B-GA binding was used. […] Stock solutions of each compound were prepared in DMSO at a concentration of 10 mM and 3-fold serial dilutions prepared in DMSO for eleven point curves. […] The final concentration of Cy3B-GA was 6 nM and the final DMSO concentration in all wells was 0.5%. Free Cy3B-GA (mP set to 50) and buffer only (background) wells were included as controls on each plate. Plates were incubated at 8°C with gentle shaking for 20 h.

B. malayi Hsp90 = B. malayi Hsp90 (Brugia malayi, UniProt A0A0H5S7Y7); assay: Competition FP assay (displacement of Cy3B-GA), B. malayi lysate; assay type: binding; conditions: best fit (95% confidence intervals), read-out: B. malayi IC50
Procedure: as §1, §2

adult female B. pahangi [2] = assay: Adult female worm assay in vitro (Mf output and adult viability), continuous exposure; assay type: cell-based, Brugia pahangi
Procedure: For adult worm assays, adult female B. pahangi, 3–4 months old, were incubated individually in 2.0 ml of WCM overnight in 24-well plates and pre-screened for Mf production. […] For the drug experiments, six female worms of B. pahangi for each concentration of drug were cultured individually in 24-well plates in 2.0 ml of WCM containing drug, or carrier alone (DMSO) at a concentration equal to that in the highest concentration of drug. In some experiments, GA was used as a positive control. Initially, all five compounds were tested over selected concentrations starting at 2 µM to 100 nM (see Results for details). For Hsp90 inhibitors, Mf output by individual female worms is a sensitive indicator of adult worm viability and, in most experiments, was assessed at 72 h. In addition, adult worms were examined microscopically on a daily basis for 7–10 days to determine whether lower concentrations of drugs had any effects over a longer period of incubation. Results are expressed as mean Mf output ± SD over a 72 h period. Statistical significance between groups was calculated using the Mann Whitney test with P values<0.05 being considered significant.

[3] = single dose of 50 mg/Kg, intra-peritoneal route; cited from earlier work
[4] = system: adult female B. pahangi and Mf; assay: In vivo testing: adult female worms transplanted into the peritoneal cavity of BALB/c mice; parameters: species or system BALB/c mouse; conditions: 50 mg/Kg i.p. at day 0, 3 and 7
Excerpt: Adult worms were removed from the peritoneal cavity of infected jirds and rinsed in HBSS. 10 adult female worms were transplanted into the peritoneal cavity of each of ten male BALB/c mouse using standard methods, [28]. Adult worms were transferred into the peritoneal cavity of anaesthetized mice using a blunted glass hook. Not all mice received the full quota of 10 worms (see Table 1). […] This dose was selected on the basis of previous studies in a mouse xenograft model. […] The condition of any adult worms recovered was noted. Mf in the first 12 ml of peritoneal washings were pelleted by centrifugation and fixed in 2% formalin in water and stored at 4°C until counted. Mice were weighed at each time point to monitor any possible weight loss.

[5] = system: B. pahangi Mf (microfilariae); assay: Mf viability in vitro; assay type: cell-based, Brugia pahangi; conditions: Mf
Procedure: As adult Brugia worms are limited in numbers, initial experiments assessed the effect of each drug on Mf viability. Mf were purified from infected animals essentially as described previously. In brief, following lavage of the peritoneal cavity of an infected animal with Hanks Balanced Salt Solution (HBSS) pre-warmed to 37°C, Mf were collected by centrifugation and then purified from host cells by centrifugation through lymphoprep (Sigma). This procedure was repeated twice. Mf were collected from the pellet, washed twice in HBSS and once in worm culture medium (WCM) which comprised RPMI 1640, (Invitrogen Cat No: 52400), containing 5% heat inactivated fetal calf serum, 1% glucose, 100 units/ml penicillin and 100 µg/ml streptomycin (all Invitrogen). Mf were then dispensed into the wells of a 24-well plate to give approximately 200 Mf in 2.0 ml, using a single well for each drug concentration. All procedures were carried out using aseptic techniques. The five novel compounds, plus GA and medium alone controls, were tested three times against Mf over the full range of concentrations.

B. pahangi Hsp90 = molecular target: T1, B. pahangi Hsp90 (Brugia pahangi, UniProt O61998); assay: Competition FP assay (displacement of Cy3B-GA), B. pahangi lysate; assay type: binding; conditions: FP assay; best fit (95% confidence intervals); read-out: B. pahangi IC50
T1 construct: Adult worms of B. pahangi were obtained from infected jirds; from tissue; host or cells: whole adult B. pahangi worms, ground and lysed in HFB buffer
Procedure: Adult worms of B. pahangi were obtained from infected jirds after 3–4 months, exactly as described previously and were frozen in liquid nitrogen, ground in a pestle and mortar to a fine powder and re-suspended in an appropriate volume of HFB assay buffer (20 mM HEPES, pH 7.3, 50 mM KCl, 5 mM MgCl2, 20 mM Na2MoO4, 1% NP40). Protein concentrations were estimated using the BioRad protein assay. At this point lysates were freeze-dried for shipping to the USA.
as §1, §2

male worms (B. pahangi) = assay: Adult male worm exposure in vitro; assay type: cell-based, Brugia pahangi; conditions: 100 nM, day 7 of exposure
Procedure: The remaining worms although alive, were extremely sluggish. […] Worms that were dying tended to burst and release their uterine contents and wells contained many embryonic stages in addition to Mf. […] By day 7 of exposure 100% of male worms exposed to 100 nM drug were dead.

[6] = recovery 9 days after last dose

For `CCNC(=O)c1noc(-c2cc(C(C)C)c(O)cc2O)c1-c1ccc(CN2CCOCC2)cc1` [NVP-AUY922], the “effect on L3” value (L3 stage of B. pahangi; 1 nM or below) was “no effect”, the L3 dead (L3 stage of B. pahangi; 5.0 nM, remainder moving very slowly) was “approximately 30%” and the L3 dead (L3 stage of B. pahangi; all concentrations down to and including 10 nM) was 100%. For the same compound, the “mean Mf production” value (adult female B. pahangi [1]; 10 nM, not significant vs DMSO) was 910±674 Mf, the “mean Mf production” value (adult female B. pahangi [1]; 25 nM) was 100±60 Mf and the “mean Mf production” value (adult female B. pahangi [1]; 250 nM) was 11±23 Mf. The “condition of adult worms” value (adult female B. pahangi [1]; 24 h exposure to 10 nM, day 9, vs DMSO controls) was “no obvious difference”, the “condition of adult worms” value (adult female B. pahangi [1]; 24 h exposure to 25 nM, day 9) was “noticeably more sluggish than control worms” and the “condition of adult worms” value (adult female B. pahangi [1]; 24 h exposure to 250 nM, 9 days in medium alone) was “barely moving, but they were still alive”. For the same compound, the “lowest concentration with significantly fewer Mf” value (adult female B. pahangi [1]; 24 h in drug and 48 h in medium alone) was 10 nM, the “lowest concentration with significantly fewer Mf” value (adult female B. pahangi [1]; after 24 h in drug) was 25 nM and the IC50 (Brugia Hsp90) was about 1 nM. The IC50 (B. malayi Hsp90) was 0.95 nM, the “adult worm survival at lower concentrations” value (adult female B. pahangi [2]; 10 and 5.0 nM, motility affected) was “did not die” and the “lowest concentration with significant inhibitory effect on Mf output” value (adult female B. pahangi [2]; 72 h exposure, titrated 500 nM to 1.0 nM) was 10 nM. For the same compound, the adult worms killed (adult female B. pahangi [2]; 6 days exposure, 25 nM) was 50%, the adult worms dead (adult female B. pahangi [2]; 6 days exposure, 25 nM, typical experiment) was 3/6 and the adult worms dead (adult female B. pahangi [2]; 6 days exposure, 50 nM, typical experiment) was 4/6. The adult worms dead (adult female B. pahangi [2]; 6 days exposure, 100 nM and above) was “all adult worms were dead”, the “lowest concentration with significant decrease in Mf output” value (adult female B. pahangi [2]; 6 days exposure, not significant at 1.0 nM) was 5.0 nM and 5 nM and the “concentration with significant effect on Mf output” value (adult female B. pahangi [2]; initial screen 2.0 µM to 100 nM, adult female worms) was at most 100 nM. The “time of maximum plasma level post-dosing” value [3] was 0.25 h, the “Mean no Mf per mouse” value ([4]; first 12 ml of peritoneal washings) was 4730±5101 and the “recovery of live worms” value ([4]; range over treated mice) was 0–11%. For the same compound, the “Total number worms recovered” value ([4]; recovered/transplanted) was 8/48 ^**, the “No. mice with live Mf” value [4, 6] was 2/5 and the “No. mice with viable worms” value [4, 6] was 2/5. For the same compound, the “No. mice with worms” value [4, 6] was 5/5, the “No. viable worms recovered” value [4, 6] was 2 and the “viable worms recovered (mean % ± SD)” value [4, 6] was 4.4±6.0%. For the same compound, the “% death by day 7” value ([5]; 0.976 nM) was 75%, the “% death by day 7” value ([5]; 1.95 nM) was 100% and the IC50 (B. pahangi Hsp90) was 0.64 nM. It also gave a male worms dead (male worms (B. pahangi)) of 100%.
